# Tests used:
# Assay type in all cases: in vivo
# [1] = system: Abutilon theophrasti (ABUTH); assay: Post-emergence herbicidal action, greenhouse pot trial; details: visual rating after about 3 weeks; for pest or weed control at 80 g/ha / pest or weed control at 320 g/ha: Abutilon theophrasti, 504 h; for pest or weed control at 80 g/ha: read-out: Post-emergence effect at 80 g/ha against ABUTH in %; for pest or weed control at 320 g/ha: read-out: Post-emergence effect at 320 g/ha against ABUTH in %
# Method in brief: (§1)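 Sandy loam pots, greenhouse; one-leaf stage (2–3 wk after sowing); WP/EC in water, 0.5% additive, 600 l/ha spray volume; ≤320 g/ha; visual score vs untreated at ~3 wk, 0–100%.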
# [2] = system: Alopecurus myosuroides (ALOMY); assay: as above; details: visual rating after about 3 weeks
# Method in brief: as §1
# [3] = system: Amaranthus retroflexus (AMARE); assay: as above; details: visual rating after about 3 weeks; for pest or weed control at 80 g/ha / pest or weed control at 320 g/ha: Amaranthus retroflexus, 504 h; for pest or weed control at 80 g/ha: read-out: Post-emergence effect at 80 g/ha against AMARE in %; for pest or weed control at 320 g/ha: read-out: Post-emergence effect at 320 g/ha against AMARE in %
# Method in brief: as §1
# Avena fatua (AVEFA) = assay: as above; details: visual rating after about 3 weeks; for pest or weed control at 320 g/ha: Avena fatua, 504 h, read-out: Post-emergence effect at 320 g/ha against AVEFA in %
# Method in brief: as §1
# [4] = system: Digitaria sanguinalis (DIGSA); assay: as above; details: visual rating after about 3 weeks; for pest or weed control at 320 g/ha: Digitaria sanguinalis, 504 h, read-out: Post-emergence effect at 320 g/ha against DIGSA in %
# Method in brief: as §1
# [5] = system: Echinochloa crus-galli (ECHCG); assay: as above; details: visual rating after about 3 weeks; for pest or weed control at 320 g/ha: Echinochloa crus-galli, 504 h, read-out: Post-emergence effect at 320 g/ha against ECHCG in %
# Method in brief: as §1
# Lolium rigidum (LOLRI) = assay: as above; details: visual rating after about 3 weeks; for pest or weed control at 320 g/ha: Lolium rigidum, 504 h, read-out: Post-emergence effect at 320 g/ha against LOLRI in %
# Method in brief: as §1
# [6] = system: Matricaria inodora (MATIN); assay: as above; details: visual rating after about 3 weeks; for pest or weed control at 80 g/ha / pest or weed control at 320 g/ha: Tripleurospermum inodorum, 504 h; for pest or weed control at 80 g/ha: read-out: Post-emergence effect at 80 g/ha against MATIN in %; for pest or weed control at 320 g/ha: read-out: Post-emergence effect at 320 g/ha against MATIN in %
# Method in brief: as §1
# [7] = system: Pharbitis purpurea (PHBPU); assay: as above; details: visual rating after about 3 weeks; for pest or weed control at 320 g/ha: read-out: Post-emergence effect at 320 g/ha against PHBPU in %
# Method in brief: as §1
# [8] = system: Polygonum convolvulus (POLCO); assay: as above; details: visual rating after about 3 weeks; for pest or weed control at 80 g/ha / pest or weed control at 320 g/ha: Fallopia convolvulus, 504 h; for pest or weed control at 80 g/ha: read-out: Post-emergence effect at 80 g/ha against POLCO in %; for pest or weed control at 320 g/ha: read-out: Post-emergence effect at 320 g/ha against POLCO in %
# Method in brief: as §1
# Setaria viridis (SETVI) = assay: as above; details: 320 g/ha, visual rating after about 3 weeks; for pest or weed control at 320 g/ha: Setaria viridis, 504 h, read-out: Post-emergence effect at 320 g/ha against SETVI in %
# Method in brief: as §1
# Viola tricolor (VIOTR) = assay: as above; details: for pest or weed control at 20 g/ha / pest or weed control at 80 g/ha / pest or weed control at 320 g/ha: Viola tricolor, 504 h, read-out: Post-emergence effect against VIOTR
# Method in brief: as §1
# Zea mays (ZEAMX) = assay: Post-emergence crop plant compatibility, greenhouse pot trial; details: 20 g/ha, in comparison to untreated controls
# Procedure: Seeds of monocotyledonous and dicotyledonous weeds and crop plants are placed in sandy loam in plastic or organic planting pots, covered with soil and cultivated in a greenhouse under controlled growth conditions. 2 to 3 weeks after sowing, the trial plants are treated at the one-leaf stage. The compounds of the invention, formulated in the form of wettable powders (WP) or as emulsion concentrates (EC), are then sprayed onto the green parts of the plants as aqueous suspension or emulsion with addition of 0.5% additive at a water application rate equivalent to 600 l/ha. After about 3 weeks of keeping the trial plants in the greenhouse under optimum growth conditions, the effect of the preparations is rated visually in comparison to untreated controls. For example, 100% activity=the plants have died, 0% activity=like control plants.
# The observed effects on selected crop plants are reported here in comparison to the untreated controls (values in %). The appendices “a”, “b” and “c” give differentiation by dosage used with otherwise the same useful plants tested.
# As shown by results from Tables B1 to B19, inventive compounds of the general formula (I) in the case of post-emergence treatment have good herbicidal efficacy against harmful plants, for example Abutilon theophrasti (ABUTH), Alopecurus myosuroides (ALOMY), Amaranthus retroflexus (AMARE), Avena fatua (AVEFA), Digitaria sanguinalis (DIGSA), Echinochloa crus-galli (ECHCG), Bassia scoparia (KCHSC), Lolium rigidum (LOLRI), Matricaria inodora (MATIN), Pharbitis purpurea (PHBPU), Polygonum convolvulus (POLCO), Setaria viridis (SETVI), Veronica persica (VERPE) and Viola tricolor (VIOTR) at an application rate of 320 g of active substance or less per hectare, and good crop plant compatibility in the case of organisms such as Oryza sativa (ORYSA), Zea mays (ZEAMX), Brassica napus (BRSNW), Glycine max (GLXMA) and Triticum aestivum (TRZAS) at an application rate of 320 g or less per hectare.
# Bassia scoparia (KCHSC) = assay: Post-emergence herbicidal action, greenhouse pot trial; details: for pest or weed control at 80 g/ha / pest or weed control at 320 g/ha: Bassia scoparia, 504 h, read-out: Post-emergence effect against KCHSC
# Method in brief: as §1
# Veronica persica (VERPE) = assay: as above; details: visual rating after about 3 weeks; for pest or weed control at 320 g/ha: Veronica persica, 504 h, read-out: Post-emergence effect at 320 g/ha against VERPE in %
# Method in brief: as §1
# [9] = Ipomoea purpurea, 504 h, 320 g/ha
SMILES,Post-emergence effect at 320 g/ha against ALOMY in % ([2]; 320 g/ha) [%],Post-emergence effect at 80 g/ha against DIGSA in % [4] [%],Post-emergence effect at 320 g/ha against DIGSA in % [4] [%],pest or weed control at 320 g/ha (Avena fatua (AVEFA); 320 g/ha) [%],pest or weed control at 320 g/ha (Bassia scoparia (KCHSC)) [%],pest or weed control at 320 g/ha (Veronica persica (VERPE)) [%],pest or weed control at 80 g/ha ([1]; 80 g/ha) [%],pest or weed control at 320 g/ha ([1]; 320 g/ha) [%],pest or weed control at 80 g/ha [3] [%],pest or weed control at 320 g/ha ([3]; 320 g/ha) [%],pest or weed control at 320 g/ha [5] [%],pest or weed control at 80 g/ha ([6]; 80 g/ha) [%],pest or weed control at 320 g/ha ([6]; 320 g/ha) [%],"pest or weed control at 320 g/ha [7, 9] [%]",pest or weed control at 80 g/ha ([8]; 80 g/ha) [%],pest or weed control at 320 g/ha ([8]; 320 g/ha) [%],pest or weed control at 320 g/ha (Setaria viridis (SETVI)) [%],pest or weed control at 20 g/ha (Viola tricolor (VIOTR)) [%],pest or weed control at 80 g/ha (Viola tricolor (VIOTR); 80 g/ha) [%],pest or weed control at 320 g/ha (Viola tricolor (VIOTR); 320 g/ha) [%],other results
"COC(=O)CCOC(=O)C(Oc1nn(-c2ncccc2F)c(-c2ccc(F)nc2)c1Br)SC (single isomer, unassigned) [Example I-23]",80,90,90,–,–,–,–,–,–,–,–,–,–,–,–,–,–,–,–,–,Post-emergence effect at 80 g/ha against ABUTH in % ([1]; 80 g/ha): 80%; Post-emergence effect at 320 g/ha against ABUTH in % ([1]; 320 g/ha): 90%; Post-emergence effect at 320 g/ha against AMARE in % ([3]; 320 g/ha): 80%; Post-emergence effect at 320 g/ha against AVEFA in % (Avena fatua (AVEFA); 320 g/ha): 80%; Post-emergence effect at 80 g/ha against ECHCG in % [5]: 90%; Post-emergence effect at 320 g/ha against ECHCG in % [5]: 90%; Post-emergence effect at 320 g/ha against LOLRI in % (Lolium rigidum (LOLRI)): 90%; Post-emergence effect at 80 g/ha against MATIN in % ([6]; 80 g/ha): 80%; Post-emergence effect at 320 g/ha against MATIN in % ([6]; 320 g/ha): 90%; Post-emergence effect at 80 g/ha against PHBPU in % ([7]; 80 g/ha): 80%; Post-emergence effect at 320 g/ha against PHBPU in % ([7]; 320 g/ha): 90%; Post-emergence effect at 80 g/ha against POLCO in % ([8]; 80 g/ha): 80%; Post-emergence effect at 320 g/ha against POLCO in % ([8]; 320 g/ha): 90%; Post-emergence effect at 320 g/ha against SETVI in % (Setaria viridis (SETVI)): 90%; Post-emergence effect against VIOTR (Viola tricolor (VIOTR); 80 g/ha): 80%; Post-emergence effect against VIOTR (Viola tricolor (VIOTR); 320 g/ha): 90%; Post-emergence effect against ZEAMX (crop plant compatibility) (Zea mays (ZEAMX)): 0%
"CCOC(=O)C(Oc1nn(-c2ccccc2F)c(-c2ccc(F)nc2)c1Br)SC (single isomer, unassigned) [Example I-40]",80,90,90,90,90,80,–,–,–,–,–,–,–,–,–,–,–,–,–,–,"Post-emergence effect at 20 g/ha against ALOMY in % ([2]; 20 g/ha): 80%; Post-emergence effect at 80 g/ha against ALOMY in % ([2]; 80 g/ha): 80%; Post-emergence effect at 20 g/ha against AVEFA in % (Avena fatua (AVEFA); 20 g/ha): 80%; Post-emergence effect at 80 g/ha against AVEFA in % (Avena fatua (AVEFA); 80 g/ha): 90%; Post-emergence effect at 20 g/ha against KCHSC in % (Bassia scoparia (KCHSC); 20 g/ha, visual rating after about 3 weeks): 80%; pest or weed control at 80 g/ha (Bassia scoparia (KCHSC)): 90%; Post-emergence action at 20 g/ha against DIGSA in % ([4]; 20 g/ha): 90%; Post-emergence effect at 20 g/ha against ECHCG in % ([5]; 20 g/ha): 80%; Post-emergence effect at 80 g/ha against ECHCG in % [5]: 80%; Post-emergence effect at 320 g/ha against ECHCG in % [5]: 90%; Post-emergence effect at 20 g/ha against LOLRI in % (Lolium rigidum (LOLRI); 20 g/ha): 80%; Post-emergence effect at 80 g/ha against LOLRI in % (Lolium rigidum (LOLRI); 80 g/ha): 80%; Post-emergence effect at 320 g/ha against LOLRI in % (Lolium rigidum (LOLRI)): 90%; Post-emergence effect at 20 g/ha against VERPE in % (Veronica persica (VERPE); 20 g/ha): 80%; Post-emergence effect at 80 g/ha against VERPE in % (Veronica persica (VERPE)): 80%; Post-emergence effect against VIOTR (Viola tricolor (VIOTR); 320 g/ha): 80%"
CCOC(=O)C(Oc1nn(-c2ncccc2F)c(-c2cncc(F)c2)c1C1CC1)SC (stereo not drawn) [Example I-41],–,–,–,100,90,80,90,90,90,90,90,80,90,80,80,90,90,90,90,90,"Post-emergence action at 20 g/ha against ABUTH in % ([1]; 20 g/ha): 80%; pest or weed control at 320 g/ha ([2]; Alopecurus myosuroides, 504 h, 320 g/ha, read-out: Post-emergence effect at 320 g/ha against ALOMY in %): 80%; Post-emergence effect at 20 g/ha against AMARE in % ([3]; 20 g/ha): 80%"
CSC(Oc1nn(-c2ncccc2F)c(-c2cncc(F)c2)c1Br)C(=O)O (stereo not drawn) [Example I-42],–,80,–,100,90,80,80,90,90,90,90,80,90,90,80,90,90,90,90,90,"pest or weed control at 80 g/ha (Bassia scoparia (KCHSC)): 90%; pest or weed control at 320 g/ha [4]: 90%; pest or weed control at 320 g/ha (Lolium rigidum (LOLRI)): 90%; Post-emergence effect at 20 g/ha against PHBPU in % ([7]; 20 g/ha): 80%; pest or weed control at 80 g/ha ([7]; Ipomoea purpurea, 504 h, 80 g/ha, read-out: Post-emergence effect at 80 g/ha against PHBPU in %): 80%"
COC(=O)C(Oc1nn(-c2ncccc2F)c(-c2cncc(F)c2)c1C1CC1)SC (stereo not drawn) [Example I-66],–,–,–,80,90,90,80,90,90,90,90,80,90,90,80,80,80,90,90,90,pest or weed control at 320 g/ha [4]: 80%; pest or weed control at 320 g/ha (Lolium rigidum (LOLRI)): 90%; Post-emergence effect at 80 g/ha against VERPE in % (Veronica persica (VERPE)): 90%

# Reference: patent publication US20250026724A1, “(1,4,5-TRISUBSTITUTED 1H-PYRAZOL-3-YL)OXY-2-ALKYLTHIOALKYL ACIDS AND -ALKYL ACID DERIVATIVES, SALTS THEREOF AND USE THEREOF AS ACTIVE HERBICIDAL INGREDIENTS” (BAYER AKTIENGESELLSCHAFT, priority 2021, published 2025)
